Experimental data taken from US20160095823A1, “METHODS OF USING PROPOFOL DERIVATIVES FOR ANALGESIA” (priority 2005, published 2016).
Several values for one entry are separate records, joined by “and”; a condition that tells them apart may be missing. Equal entries are not always repeated.

Columns and labels:
[1] = target: T1, α-subunits of glycine receptors from the rat coexpressed with human β subunits (Rattus norvegicus, UniProt P07727); experiment: Example 2: co-activation of the current response to 10 μM glycine, whole-cell mode, HEK293 cells; type: cell-based
T1 construct: expressed in transfected cells; host or cells: HEK293
T1 sequence (P07727 29-457): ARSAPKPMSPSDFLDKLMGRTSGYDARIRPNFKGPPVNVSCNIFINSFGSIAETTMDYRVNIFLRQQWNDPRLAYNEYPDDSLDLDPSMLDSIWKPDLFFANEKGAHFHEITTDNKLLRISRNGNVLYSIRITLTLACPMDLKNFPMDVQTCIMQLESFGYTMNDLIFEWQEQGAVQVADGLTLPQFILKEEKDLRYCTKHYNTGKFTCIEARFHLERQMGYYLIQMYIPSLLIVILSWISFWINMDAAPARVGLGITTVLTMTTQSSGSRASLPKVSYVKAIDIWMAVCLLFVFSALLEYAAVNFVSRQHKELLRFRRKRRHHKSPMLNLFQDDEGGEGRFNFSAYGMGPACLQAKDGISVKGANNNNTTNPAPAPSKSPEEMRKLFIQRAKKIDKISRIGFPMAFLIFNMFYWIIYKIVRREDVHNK
T1 sequence (P48167 23-497 partner): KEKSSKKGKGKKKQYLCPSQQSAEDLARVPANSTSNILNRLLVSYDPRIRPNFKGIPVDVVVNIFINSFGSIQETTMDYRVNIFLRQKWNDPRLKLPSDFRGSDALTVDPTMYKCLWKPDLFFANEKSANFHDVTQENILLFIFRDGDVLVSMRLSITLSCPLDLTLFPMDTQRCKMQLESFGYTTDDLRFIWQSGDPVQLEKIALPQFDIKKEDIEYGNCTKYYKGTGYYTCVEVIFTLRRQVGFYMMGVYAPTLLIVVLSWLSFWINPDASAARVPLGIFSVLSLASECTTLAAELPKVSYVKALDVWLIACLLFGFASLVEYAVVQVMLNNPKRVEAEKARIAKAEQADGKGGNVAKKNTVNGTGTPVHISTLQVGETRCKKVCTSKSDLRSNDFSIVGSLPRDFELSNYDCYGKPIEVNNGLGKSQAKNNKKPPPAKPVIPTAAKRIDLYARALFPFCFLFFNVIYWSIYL
Protocol: (§1) Small cells were studied in the whole-cell mode using an ultra-fast application device.
The results presented in FIG. 10 were corroborated by repeating the tests carried out to provide the data shown in FIG. 10 to provide the data shown in FIG. 11. […] Note from FIGS. 10 and 11 that the co-activating effect is observed in the concentration range between […]. The co-activating effect is overridden by inhibitory effects at higher concentrations (≧1000 μM). […] Small cells were studied in the whole-cell mode using an ultra-fast application device.

Xenopus laevis embryos [2] = experiment: Fictive swimming in immobilized stage 37/8 Xenopus embryos (ventral root recording); type: in vivo
From the text: The rhythmic swimming behaviour of Xenopus laevis frog embryos (FIG. 22A) is recognised as a powerful model system for exploring spinal neural networks controlling locomotion. The intensity, frequency and duration of swimming episodes are regulated by two inhibitory pathways: a descending brainstem GABA pathway that turns off swimming and a spinal glycinergic pathway that controls the cycle periods attained during swimming.
In the present study Xenopus embryos were used to test the action of 4-chloropropofol (a compound according to the first aspect of the invention) upon fictive swimming in immobilized embryos.
Stage 37/8 embryos (FIG. 22Ai) were immobilized in α-bungarotoxin, secured on a Sylgard block mounted in a recording chamber and recirculated with frog ringer. The flank skin on the left and right sides of the trunk was removed to expose the inter-myotomal clefts wherein lie the ventral roots and then three glass suction electrodes were positioned at rostral and caudal levels on the left side and rostrally on the right side (FIG. 22Aiii) to record “fictive” swimming (FIG. 22B). Swimming activity was evoked by a brief 1 msec current pulse applied to the tail skin via a fourth glass suction electrode. Drugs were applied directly to the bath.

native glycine receptors = experiment: Rat in vitro spinal cord preparation (sIPSCs, tonic conductance); conditions: 100 nM-1 μM, preliminary experiments
[3] = target: T2, recombinant glycine alpha1 receptors (Homo sapiens, UniProt P23415); experiment: Glycine (EC10)-evoked current in Xenopus oocytes; type: cell-based; conditions: 100 nM, preliminary experiments
T2 construct: expressed in transfected cells; host or cells: Xenopus oocytes
T2 sequence (P23415 29-457): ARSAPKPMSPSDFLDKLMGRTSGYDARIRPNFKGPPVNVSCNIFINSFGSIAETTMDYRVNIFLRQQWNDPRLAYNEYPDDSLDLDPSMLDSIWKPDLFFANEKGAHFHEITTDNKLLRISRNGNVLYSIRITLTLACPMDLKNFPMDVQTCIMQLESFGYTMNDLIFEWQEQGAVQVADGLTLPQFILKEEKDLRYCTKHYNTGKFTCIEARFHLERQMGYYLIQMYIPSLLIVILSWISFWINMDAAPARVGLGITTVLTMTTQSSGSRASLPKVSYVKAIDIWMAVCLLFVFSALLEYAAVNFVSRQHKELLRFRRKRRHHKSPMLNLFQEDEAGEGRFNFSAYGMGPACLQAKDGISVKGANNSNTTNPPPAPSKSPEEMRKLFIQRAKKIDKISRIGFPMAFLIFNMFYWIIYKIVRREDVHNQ

[4] = target: T1, α-subunits of glycine receptors from the rat coexpressed with human β subunits; experiment: Example 2: direct activation in the absence of glycine, whole-cell mode, HEK293 cells; type: cell-based
From the text: as §1
The solid line is a Hill fit to the data with the indicated parameters. Note that the direct activating effect is observed at 1000-fold higher concentrations than the co-activating effect.

glycine receptors = conditions: reported; cited from earlier work
Xenopus laevis embryos [5] = conditions: cited from earlier work
[6] = 10 μM in the presence of 1 μM strychnine
[7] = 10 μM in the presence of 1 μM strychnine, pooled n=3
[8] = 10 μM in the presence of 40 μM bicuculline methiodide
[9] = wash after 10 μM in 1 μM strychnine
[10] = wash after 10 μM in 40 μM bicuculline methiodide

CC(C)c1cc(Cl)cc(C(C)C)c1O [4-chloropropofol, 4-chloro-2,6 di-isopropylphenol]
EC50 values in the presence of glycine (co-activation) ([1]; Example 2): single-digit nanomolar range | concentrations above which peak current amplitude declines (probable open channel block) ([1]; co-applied with 10 μM glycine): above 10 μM | concentrations at which the co-activating effect is overridden by inhibitory effects ([1]; co-applied with 10 μM glycine): ≥ 1000 µM | enhancement of glycine receptor function / EC50 for co-activation, fold lower concentrations than propofol ([1]; glycine receptors heterologously expressed in HEK293 cells): 1000 fold | change in episode duration (Xenopus laevis embryos [2]; 10 μM alone): no significant change | increase in left-right delay (Xenopus laevis embryos [2]; 10 μM alone): 19% | increase in rostro-caudal delay (Xenopus laevis embryos [2]; 10 μM alone): 8% | increase in cycle periods (Xenopus laevis embryos [2]; 10 μM alone, pooled from 5 experiments): approximately 20% | decrease in cycle periods at the end of the episode (Xenopus laevis embryos [2]; [6]): 3.4 ms | decrease in episode duration (Xenopus laevis embryos [2]; [6]): 17 s | increase in cycle periods at the start of the episode (Xenopus laevis embryos [2]; [6]): 0.5 ms | decrease in cycle periods (not significant) (Xenopus laevis embryos [2]; [7]): less than 2% | effect on episode duration (Xenopus laevis embryos [2]; [7]): little or no effect | effect on left-right delay (Xenopus laevis embryos [2]; [7]): little or no effect | increase in cycle periods at the end of the episode (Xenopus laevis embryos [2]; [8]): 20.3 ms | increase in cycle periods at the start of the episode (Xenopus laevis embryos [2]; [8]): 8.2 ms | increase in episode duration (Xenopus laevis embryos [2]; [8]): 2 s | average cycle period (Xenopus laevis embryos [2]; 20 minutes after addition of 10 μM 4-chloropropofol in bicuculline): 61.3 ms | reversal of effect on cycle period by saline wash (Xenopus laevis embryos [2]; after 10 μM alone): 25-30% | reversal of effect on left-right delay by saline wash (Xenopus laevis embryos [2]; after 10 μM alone): 22% | reversal of effect on rostro-caudal delay by saline wash (Xenopus laevis embryos [2]; after 10 μM alone): 12% | average cycle period (Xenopus laevis embryos [2]; after bicuculline methiodide wash): 54.5 ms | effect at the GABAA receptor (Xenopus laevis embryos [2]; at 1004 (so in the source)): negligible effect | influence on glycine receptors (Xenopus laevis embryos [2]; at the same concentration): powerful influence | change in rostro-caudal delay (Xenopus laevis embryos [2]; in the presence of 1 μM strychnine): small increase | change in rostro-caudal delay (Xenopus laevis embryos [2]; in the presence of 40 μM bicuculline methiodide): clear decrease | decrease in cycle periods at the end of the episode by strychnine wash (Xenopus laevis embryos [2]; [9]): 5.4 ms | decrease in cycle periods at the start of the episode by strychnine wash (Xenopus laevis embryos [2]; [9]): 3 ms | increase in episode duration by strychnine wash (Xenopus laevis embryos [2]; [9]): 2 s | further decrease in cycle periods by the strychnine wash (Xenopus laevis embryos [2]; wash after 10 μM in 1 μM strychnine, pooled n=3): 3% and 1% | further increase of cycle periods at the end of the episode after bicuculline wash (Xenopus laevis embryos [2]; [10]): 6.5 ms | reduction of cycle period at the start of the episode by bicuculline wash (Xenopus laevis embryos [2]; [10]): 2 ms | reduction of episode duration by bicuculline wash (Xenopus laevis embryos [2]; [10]): 2 s | effect on sIPSCs (mediated by synaptic glycine receptors) (native glycine receptors): prolongation | effect on tonic conductance (mediated by extrasynaptic glycine receptors) (native glycine receptors): increase | effect on glycine (EC10)-evoked current [3]: greatly enhanced | EC50 values in the absence of the natural transmitter glycine ([4]; Example 2): single-digit micromolar range | direct activating effect, fold higher concentrations than the co-activating effect ([4]; absence of glycine versus 10 μM glycine): 1000 fold

CC(C)c1cccc(C(C)C)c1O [propofol, 2,6-di-isopropylphenol]
activation of glycine receptors, fold higher concentrations than EC50 at GABAA receptors (glycine receptors): 10 fold | concentration affecting swimming via potentiation of the glycine receptor (Xenopus laevis embryos [5]; higher concentrations): 40 µM | concentration inhibiting swimming via actions at the GABAA receptor (Xenopus laevis embryos [5]; low concentration): 10 µM
